Results on 2 substances are retold here after patent US20090004194A1, “TLR AGONIST (FLAGELLIN)/CD40 AGONIST/ANTIGEN PROTEIN AND DNA CONJUGATES AND USE THEREOF FOR INDUCING SYNERGISTIC ENHANCEMENT IN IMMUNITY” (Regents of the University of Colorado, priority 2006, published 2009).

“Also recorded” adds a separate entry of the source.

In assay [1] the test system is antigen specific CD8+ T cells. The experiment in a line: Immunization of mice with ovalbumin plus TLR and CD40 agonists; antigen-specific CD8+ T cells by tetramer staining. The class given is in vivo.
The subject of assay [2] is spleen cells. The assay is described as follows: Type 1 IFN (IFNalphabeta) induction in spleen cells in vitro. The format is cell-based. The source says:
Two forms of the recombinant protein are made; the light chain, heavy chain and HIV Gag with and without flagellin. The TLR7/8 agonist is conjugated to each other resulting in the production of proteins which stimulate CD40/TLR7/8. A proprietary TLR7/8 agonist, called 3M012 (3M Pharmaceuticals Inc, St. Paul Minn.) contains a photoconjugatable linker, which when placed under UV light, conjugates rapidly to terminal amino groups (lysines, arginines, N terminus) in the protein of interest. Conjugation to the TLR7/8 agonist is performed as described previously (Wille-Reece et al., J. Immunol. 174:7676 (2005)). Briefly, recombinant protein is placed in deep well polypropylene 96 well plates (Costar) with 50-100 microliters of 10 mg/ml 3M012 and exposed to longwave UV light for 15 minutes. Following UV exposure, the recombinant protein-TLR7/8 conjugate is washed through a 30 kd cutoff centricon concentrator to remove any free 3M012 and […] molecular weight drug conjugates. The recombinant protein-TLR7/8 conjugates are washed in PBS pH 7.5-8 and analyzed as described above for anti-CD40 and TLR5 activity (for recombinant protein containing flagellin). The amount of 3M012 conjugated to the recombinant protein is determined in vitro by type 1 IFN (IFNalphabeta) induction in spleen cells as previously described (Wille-Reece et al. (Id)).

flagellin: the “synergy with anti-CD40 for inducing CD8+ T cell expansion” value in assay [1] (whole ovalbumin + anti-CD40 + TLR agonist) is on record as “able to synergize with anti-CD40; also recorded: effectively synergizes with anti-CD40”. Also, the IFN alphabeta induction entry in assay [2] is on record as “does not induce IFN alphabeta”.

Take poly IC: the “synergy with anti-CD40 for inducing CD8+ T cell expansion” value in assay [1] (mouse, in vivo) is “able to synergize with anti-CD40”.
